The record followed here is patent publication US10071987B2, “Aminomethylene pyrazolones with therapeutic activity” (Compound Handling B.V., priority 2012, dated 2018).

Several values for one entry are separate records, joined by “and”; a condition that tells them apart may be missing. Equal values may be shown once.

In one test the test system is PC3 cells. In words: Cell invasion assay (BD Biocoat Matrigel Invasion chambers, CellTiter-GLO readout). In kind it is cell-based, human. The note with it: Homo sapiens, PC-3, PC3 cells incubated with compound (10 μM) for 4 days prior to assay; 48 hours invasion; versus DMSO treated cells; several values = repeated assays. The source says: For determining the effectiveness of the compounds according to the invention, a model assay based on the migration of cells in a migration chamber was employed. This model is accepted in the art as providing representative data on the ability of cells to metastasize.
The PC-3 prostate cancer cell line (ATCC# CRL-1435) was maintained in RPMI-1640 medium (Invitrogen, 31870), supplemented with 10% Fetal Bovine Serum (Sigma, F7524), L-Glutamine (Invitrogen 25030-024). Cells were split once a week at a 1:10 ratio.
For cell invasion assays, PC3 cells were incubated in the presence of a compound according to the invention (10 μM) for 4 days, prior to the invasion assay. Forty thousand cells were seeded into BD Biocoat Matrigel Invasion chambers (8 micron; BD 354480) in serum-free medium. The invasion chamber was placed in a 24-well containing medium with 10% fetal calf serum as chemo-attractant. As a control, the same amount of cells was seeded in 24-well culture plates. After 48 hours incubation, cells in the invasion chamber were removed by aspiration and cleaning the inner compartment with a cotton swab. The invasion chamber was then put into CellTiter-GLO (CTG, Promega-G7571) cell viability reagent, incubated for 15 minutes, and then analyzed on a Victor3 luminometer. Cell invasion was calculated as the CTG activity on the lower part of the membrane divided by the CTG activity of the cells grown in a 24 well plate. Inhibition of cell invasion by a specific compound was estimated by comparing the amount of cell invasion of compound-treated cells versus DMSO treated cells.
(In ATP-based viability assays light output follows the ATP content of the culture.)
Consider `Cc1ccc(C2=NN(c3nc4ccccc4s3)C(=O)/C2=C/N)cc1Br`, for which the inhibition at 10 µM worked out at 57%.
Turning to `N/C=C1/C(=O)N(c2nc3ccccc3s2)N=C1c1cccc(C(F)(F)F)c1` [drawing 33], the inhibition at 10 µM was 91%.
As to `N/C=C1/C(=O)N(c2nc3ccccc3s2)N=C1c1ccc(Br)s1`, the inhibition at 10 µM stood at 57%.
In the case of `N/C=C1/C(=O)N(c2nc3ccccc3s2)N=C1c1cccc(I)c1`, the inhibition at 10 µM came to 86%.
Take `Cc1ccc2nc(N3N=C(c4cccc(C(F)(F)F)c4)/C(=C\N)C3=O)sc2c1`: the inhibition at 10 µM was found to be 67%.
`COc1ccc2nc(N3N=C(c4ccccc4)/C(=C\N)C3=O)sc2c1`: the inhibition at 10 µM is 70%.
Still for that read-out and setting: for `N/C=C1/C(=O)N(c2nc3ccccc3s2)N=C1c1cccc(Cl)c1` the value was 91%.
As to `CC1=NN(c2nc3ccccc3s2)C(=O)/C1=C/N1CCCCC1`, the inhibition at 10 µM was 88%.
On to `N/C=C1/C(=O)N(c2nc3ccccc3s2)N=C1c1cccc(Br)c1`, for which the inhibition at 10 µM was determined as 87%.
Consider `N/C=C1/C(=O)N(c2nc3ccccc3s2)N=C1c1cc2ccccc2s1`, for which the inhibition at 10 µM was found to be 76%.
Turning to `N/C=C1/C(=O)N(c2nc3ccc(Cl)cc3s2)N=C1c1ccccc1`, the inhibition at 10 µM amounted to 89%.
The same measure, in the same setting: the same measure for `N/C=C1/C(=O)N(c2nc3ccc([N+](=O)[O-])cc3s2)N=C1c1cccc(C(F)(F)F)c1`: 73%.
Take `N/C=C1/C(=O)N(c2nc3ccccc3s2)N=C1c1ccccc1`: the inhibition at 10 µM is 52%.
`C/C(NCc1ccc(Cl)c(Cl)c1)=C1\C(=O)N(c2nc3ccccc3s2)N=C1C(F)(F)F`: the inhibition at 10 µM is 56%.
Same read-out and setting: the same measure for `CN/C=C1/C(=O)N(c2nc3ccccc3s2)N=C1c1cccs1`: 75%; for `COc1ccc(CN/C=C2/C(=O)N(c3nc4ccccc4s3)N=C2c2ccccc2)cc1`: 35%.

The same test, now with this note: PC3 cells incubated with compound (10 μM) for 4 days prior to assay; 48 hours invasion; versus DMSO treated cells; several values = repeated assays; 10 µM.
`N/C=C1/C(=O)N(c2nc3ccccc3s2)N=C1c1cccc(C(F)(F)F)c1` [drawing 36]: the “Results % inhibition of invasion in invasion assays” value was 89% and 82% and 78%.
Take `N/C=C1/C(=O)N(c2nc3ccccc3s2)N=C1c1cccc(Br)c1`: the “Results % inhibition of invasion in invasion assays” value amounted to 76%.
Still for that read-out and setting: the same measure for `N/C=C1/C(=O)N(c2nc3ccccc3s2)N=C1c1ccccc1`: 49% and 45%.

For another test, the system named is PC-3M-Pro4luc+ cells. In words: Formation of de novo skeletal metastases in mice, whole body bioluminescence imaging. It counts as in vivo. As to conditions: treatment of mice. The source says:
Treatment of mice with 4-[1-aminomethylidene]-2-benzothiazol-2-yl-5-phenyl-2,4-dihydro-pyrazol-3-one decreased the number of bone lesions and metastatic tumor burden. Cancer cells and tumor burden were monitored by whole body bioluminescence imaging. […] Such in vivo testing may lead to further selection, preference, deselection or disfavor of individual compounds for further programs for development of a compound for use in a prescription medicine. A particular compound of interest for such advanced testing is, 4-(aminomethylene)-2-(2-benzothiazolyl)-2,4-dihydro-5-(3-chlorophenyl)-3H-pyrazol-3-one.
As to `NC=C1C(=O)N(c2nc3ccccc3s2)N=C1c1ccccc1` [Example 2, 4-[1-Aminomethylidene]-2-benzothiazol-2-yl-5-phenyl-2,4-dihydro-pyrazol-3-one], the metastatic tumor burden entry is listed as “decreased” and the “number of bone lesions” value is reported as “decreased”.

The term inhibition denotes how much of the control response was suppressed.
